Strand notation (5' to 3'): a small letter for the sugar, then the base; units joined by * are phosphorothioate-linked, units joined directly phosphodiester-linked; [ ] holds rarer units or linkages, { } end groups; capitals alone tell only the bases. k = constrained ethyl (cEt); [5mC] = 5-methylcytosine; d = 2'-deoxy (DNA)
Test system: human SMAD7 mRNA
Experiment: Antisense inhibition of human SMAD7 mRNA expression in Hep3B cells by 3-10-3 cEt gapmers, 10,000 nM, electroporation (Example 2)
Assay type: cell-based
Conditions: Hep3B cells, 10,000 nM antisense oligonucleotide, electroporation, approximately 24 hours, RT-PCR primer probe set RTS5062, relative to untreated control cells
How it was run: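 SMAD7 mRNA was measured by real-time PCR (RTS5062) with RiboGreen total-RNA normalization, about 24 h after 10,000 nM gapmer was delivered by electroporation into Hep3B cells at 20,000 per well. Gapmers were 16-mer 3-10-3 cEt, fully phosphorothioate; values are % inhibition versus untreated controls.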

First: 800011 (k[5mC]*kT*kT*d[5mC]*dA*dG*d[5mC]*d[5mC]*dT*dG*dT*dG*dT*kT*kT*kG; antisense) [compound 800011]
Second: 799935 (antisense kA*kG*kA*dA*dA*dT*dG*dA*d[5mC]*dT*dT*dT*dT*kT*kA*k[5mC]) [compound 799935]
The “% Inhibition” value of the first is lower: 21% for the first, 42% for the second.

Going from “798894 (kA*kG*k[5mC]*dA*d[5mC]*dT*dG*dG*d[5mC]*d[5mC]*d[5mC]*d[5mC]*dA*kG*k[5mC]*k[5mC]; antisense) [compound 798894]” to “798838 (k[5mC]*k[5mC]*kG*dA*dA*dT*dT*dG*dA*dG*d[5mC]*dT*dG*kT*k[5mC]*k[5mC]; antisense) [compound 798838]”, the “% Inhibition” value rises from 55% to 58%.

Same assay, conditions: Hep3B cells, electroporation with 10,000 nM antisense oligonucleotide, approximately 24 hours, RTS5062, percent inhibition of SMAD7 mRNA relative to untreated control cells

Compared with “799528 (k[5mC]*kG*kG*dA*dT*dA*d[5mC]*d[5mC]*dA*dG*dG*dT*dG*kG*kT*kT; antisense) [compound 799528]”, “799294 (antisense k[5mC]*kG*k[5mC]*dG*dG*d[5mC]*d[5mC]*dT*dT*dG*dA*dT*dG*k[5mC]*kT*kG) [compound 799294]” is lower in “% Inhibition” value: 17% for the first, 13% for the second.

First: 799533 (kG*kA*kA*dT*dG*dA*dA*dG*dT*d[5mC]*d[5mC]*dA*dG*kA*k[5mC]*k[5mC]; antisense) [compound 799533]
Second: 799644 (kT*kT*k[5mC]*d[5mC]*dA*dA*d[5mC]*dA*d[5mC]*dA*dT*dG*d[5mC]*kT*k[5mC]*kT; antisense) [compound 799644]
The “% Inhibition” value of the first is higher: 50% for the first, 31% for the second.

Same assay, conditions: Hep3B cells, electroporation with 10,000 nM antisense oligonucleotide, approximately 24 hours, SMAD7 mRNA by RT-PCR (RTS5062), relative to untreated control cells

First: 799431 (antisense kG*kA*k[5mC]*dA*dG*d[5mC]*d[5mC]*dA*d[5mC]*dA*dA*dG*dT*k[5mC]*kA*k[5mC]) [compound 799431]
Second: 799905 (antisense kA*kG*kT*d[5mC]*dG*dA*dA*dT*d[5mC]*dA*dT*dT*dT*k[5mC]*kT*k[5mC]) [compound 799905]
The “% Inhibition” value of the first is lower: 39% for the first, 53% for the second.

Compared with “799446 (antisense kG*kA*k[5mC]*d[5mC]*dT*dA*dA*dT*d[5mC]*dT*d[5mC]*dT*dT*kT*k[5mC]*kA) [compound 799446]”, “799332 (kG*kG*kG*dA*dA*dT*dG*d[5mC]*d[5mC]*d[5mC]*dT*dT*dT*kG*kA*kG; antisense) [compound 799332]” is lower in “% Inhibition” value: 48% for the first, 45% for the second.

First: 800087 (antisense kT*kA*kA*dT*dA*dG*dG*dA*dA*dA*dA*d[5mC]*dA*kG*kT*k[5mC]) [compound 800087]
Second: 798880 (kT*k[5mC]*k[5mC]*dA*d[5mC]*dG*dG*d[5mC]*dT*dG*d[5mC]*dT*dG*k[5mC]*kA*kT; antisense) [compound 798880]
The “% Inhibition” value of the first is lower: 0% for the first, 37% for the second.

First: 798813 (k[5mC]*k[5mC]*kG*dA*dT*d[5mC]*d[5mC]*d[5mC]*d[5mC]*dA*dG*dG*d[5mC]*kT*k[5mC]*k[5mC]; antisense) [compound 798813]
Second: 800045 (kG*kA*kG*dG*dA*dG*d[5mC]*dA*dA*dG*dG*dG*dA*kG*kT*kG; antisense) [compound 800045]
The “% Inhibition” value of the first is lower: 23% for the first, 59% for the second.

First: 799989 (kT*kG*k[5mC]*dA*d[5mC]*d[5mC]*dT*dG*dG*d[5mC]*dA*dA*d[5mC]*k[5mC]*kT*kG; antisense) [compound 799989]
Second: 830179 (antisense kT*kT*kT*dA*d[5mC]*dT*dG*d[5mC]*dA*dT*dT*d[5mC]*d[5mC]*kG*kG*k[5mC]) [compound 830179]
The “% Inhibition” value of the first is higher: 57% for the first, 51% for the second.

Going from “798861 (kG*kT*kG*dT*dG*dG*d[5mC]*dG*dG*dA*d[5mC]*dT*dT*kG*kA*kT; antisense) [compound 798861]” to “798740 (antisense kT*kT*kG*dA*dG*d[5mC]*dA*d[5mC]*d[5mC]*dG*dA*dG*dT*kG*k[5mC]*kG) [compound 798740]”, the “% Inhibition” value rises from 24% to 56%.

First: 830073 (kT*k[5mC]*kA*dG*dA*dT*d[5mC]*dA*dA*dA*dG*dG*dT*kA*kA*kG; antisense) [compound 830073]
Second: 830206 (kT*kG*kA*d[5mC]*dT*d[5mC]*dA*dT*d[5mC]*dA*dG*dG*d[5mC]*kA*kT*kT; antisense) [compound 830206]
The “% Inhibition” value of the first is lower: 41% for the first, 51% for the second.

Going from “799924 (antisense k[5mC]*kA*kA*dG*d[5mC]*d[5mC]*dT*dA*d[5mC]*dA*dT*dA*dT*kT*kT*k[5mC]) [compound 799924]” to “799886 (antisense kA*k[5mC]*k[5mC]*dA*dA*dG*d[5mC]*dT*dA*d[5mC]*dT*dT*dT*kT*kG*k[5mC]) [compound 799886]”, the “% Inhibition” value rises from 22% to 25%.

Same assay, conditions: Hep3B cells, electroporation with 10,000 nM antisense oligonucleotide, approximately 24 hours, primer probe set RTS5062, relative to untreated control cells

First: 798707 (antisense kG*k[5mC]*kT*d[5mC]*dG*dG*d[5mC]*dT*dG*dT*d[5mC]*d[5mC]*dG*kT*k[5mC]*kG) [compound 798707]
Second: 799360 (k[5mC]*k[5mC]*kA*dA*dG*dA*d[5mC]*dA*d[5mC]*dT*dT*d[5mC]*dT*k[5mC]*kT*k[5mC]; antisense) [compound 799360]
The “% inhibition of SMAD7 mRNA expression” value of the first is higher: 74% for the first, 42% for the second.

Going from “798943 (antisense k[5mC]*kG*kA*dG*dG*dA*d[5mC]*dG*dA*dG*dA*dA*dG*kA*kA*kG) [compound 798943]” to “799338 (kT*kT*kA*dT*dA*dG*d[5mC]*dA*d[5mC]*dG*d[5mC]*d[5mC]*dT*k[5mC]*kT*k[5mC]; antisense) [compound 799338]”, the “% inhibition of SMAD7 mRNA expression” value falls from 13% to 0%.

First: 799065 (antisense kA*kA*kA*dT*dA*dA*dT*dT*dG*dG*dT*dT*d[5mC]*kT*kG*kG) [compound 799065]
Second: 798712 (antisense kG*k[5mC]*k[5mC]*dA*d[5mC]*d[5mC]*dG*dG*d[5mC]*d[5mC]*d[5mC]*d[5mC]*dA*kT*kG*k[5mC]) [compound 798712]
The “% inhibition of SMAD7 mRNA expression” value of the first is higher: 35% for the first, 6% for the second.

Going from “799234 (kA*kA*kA*d[5mC]*dA*dT*dT*d[5mC]*dA*dG*d[5mC]*dT*dA*kG*kG*kT; antisense) [compound 799234]” to “799458 (antisense kT*kT*kG*dA*dA*dA*dA*d[5mC]*d[5mC]*d[5mC]*dA*dA*d[5mC]*k[5mC]*k[5mC]*kT) [compound 799458]”, the “% inhibition of SMAD7 mRNA expression” value falls from 13% to 3%.

“799263 (antisense kT*k[5mC]*k[5mC]*dA*dA*d[5mC]*dT*d[5mC]*dT*d[5mC]*dT*dT*dT*kG*k[5mC]*k[5mC]) [compound 799263]” was tested, and the “% inhibition of SMAD7 mRNA expression” value was 0%.

Going from “799056 (antisense k[5mC]*kG*k[5mC]*dT*dG*d[5mC]*dT*d[5mC]*dA*dG*dA*dA*dG*k[5mC]*k[5mC]*kT) [compound 799056]” to “799073 (antisense k[5mC]*kG*k[5mC]*dT*dA*d[5mC]*dA*dA*dT*dG*dG*d[5mC]*dA*kG*kG*kG) [compound 799073]”, the “% Inhibition” value rises from 28% to 34%.

Same assay, conditions: Hep3B cells, electroporation, 10,000 nM antisense oligonucleotide, approximately 24 hours, RTS5062, relative to untreated control cells

Going from “799303 (antisense kG*kA*k[5mC]*dA*dA*dA*d[5mC]*d[5mC]*dA*d[5mC]*dA*d[5mC]*dA*kT*kT*k[5mC]) [compound 799303]” to “799602 (k[5mC]*k[5mC]*kA*dT*dT*dA*dT*dG*dA*dA*dT*dA*d[5mC]*kA*k[5mC]*kT; antisense) [compound 799602]”, the “% inhibition of SMAD7 mRNA expression” value falls from 73% to 51%.

First: 799817 (antisense kT*kA*k[5mC]*dT*dG*dA*dT*dT*d[5mC]*dA*dT*dG*dA*kG*kG*kG) [compound 799817]
Second: 799633 (kA*kG*kA*d[5mC]*dT*dG*d[5mC]*d[5mC]*dA*dA*dA*dT*d[5mC]*kA*k[5mC]*kA; antisense) [compound 799633]
The “% inhibition of SMAD7 mRNA expression” value of the first is higher: 45% for the first, 25% for the second.

Going from “799698 (antisense kT*kA*kA*dT*dA*dG*dT*dT*dT*dT*d[5mC]*dT*d[5mC]*kT*k[5mC]*kA) [compound 799698]” to “799498 (antisense kT*k[5mC]*kA*dA*dG*dA*dA*d[5mC]*dT*d[5mC]*dT*d[5mC]*d[5mC]*kT*kA*kA) [compound 799498]”, the “% inhibition of SMAD7 mRNA expression” value falls from 33% to 31%.

Same assay, conditions: SMAD7 mRNA, Hep3B cells, 10,000 nM antisense oligonucleotide, electroporation, approximately 24 hours, primer probe set RTS5062, relative to untreated control cells

Compared with “772715 (kA*kG*k[5mC]*dT*dA*dG*dG*dT*dG*dA*dT*dA*dA*k[5mC]*kA*k[5mC]; antisense) [compound 772715]”, “829759 (antisense k[5mC]*k[5mC]*kG*d[5mC]*d[5mC]*dA*d[5mC]*d[5mC]*dG*dG*d[5mC]*d[5mC]*d[5mC]*k[5mC]*kA*kT) [compound 829759]” is higher in “% Inhibition” value: 0% for the first, 51% for the second.

Compared with “790521 (kG*kG*k[5mC]*dT*dG*dT*dA*d[5mC]*dG*d[5mC]*d[5mC]*dT*dT*k[5mC]*kT*k[5mC]; antisense) [compound 790521]”, “829773 (antisense kG*kT*kA*dG*dG*dA*d[5mC]*dG*dA*dG*dG*dG*d[5mC]*kG*kG*k[5mC]) [compound 829773]” is higher in “% Inhibition” value: 19% for the first, 50% for the second.

In the case of “829725 (antisense k[5mC]*k[5mC]*kG*dT*dG*dG*d[5mC]*dA*dT*dG*d[5mC]*dG*d[5mC]*k[5mC]*kA*kG) [compound 829725]”, the “% Inhibition” value is reported as 41%.

Same assay, conditions: SMAD7 mRNA, Hep3B cells, electroporation with 10,000 nM antisense oligonucleotide, approximately 24 hours, primer probe set RTS5062, relative to untreated control cells

Going from “829992 (kG*k[5mC]*kA*dG*dG*dG*d[5mC]*d[5mC]*dG*d[5mC]*dG*dA*dG*kG*k[5mC]*kG; antisense) [compound 829992]” to “829804 (kT*kA*kG*dT*dT*d[5mC]*dG*d[5mC]*dA*dG*dA*dG*dT*k[5mC]*kG*kG; antisense) [compound 829804]”, the “% Inhibition” value rises from 10% to 39%.

For “829938 (kA*kT*kT*d[5mC]*dA*dG*d[5mC]*dT*dA*dG*dG*dT*dG*kA*kT*kA; antisense) [compound 829938]”, the “% Inhibition” value was 17%.
